Test results from US12479822B2, “AHR agonists” (Eli Lilly and Company, priority 2021, dated 2025).

molecular target: T1, Human AHR (Homo sapiens, UniProt P35869); assay: hAHR Nuclear Translocation Assay; type: cell-based; details: Jump-In T-REx HEK293 cells expressing AhR-EGFP chimera; 45 minutes incubation; ratio of EGFP fluorescent intensity in nuclear over cytosol; 20-point curve
T1 construct: expressed in transfected cells
T1 sequence (P35869 11-848): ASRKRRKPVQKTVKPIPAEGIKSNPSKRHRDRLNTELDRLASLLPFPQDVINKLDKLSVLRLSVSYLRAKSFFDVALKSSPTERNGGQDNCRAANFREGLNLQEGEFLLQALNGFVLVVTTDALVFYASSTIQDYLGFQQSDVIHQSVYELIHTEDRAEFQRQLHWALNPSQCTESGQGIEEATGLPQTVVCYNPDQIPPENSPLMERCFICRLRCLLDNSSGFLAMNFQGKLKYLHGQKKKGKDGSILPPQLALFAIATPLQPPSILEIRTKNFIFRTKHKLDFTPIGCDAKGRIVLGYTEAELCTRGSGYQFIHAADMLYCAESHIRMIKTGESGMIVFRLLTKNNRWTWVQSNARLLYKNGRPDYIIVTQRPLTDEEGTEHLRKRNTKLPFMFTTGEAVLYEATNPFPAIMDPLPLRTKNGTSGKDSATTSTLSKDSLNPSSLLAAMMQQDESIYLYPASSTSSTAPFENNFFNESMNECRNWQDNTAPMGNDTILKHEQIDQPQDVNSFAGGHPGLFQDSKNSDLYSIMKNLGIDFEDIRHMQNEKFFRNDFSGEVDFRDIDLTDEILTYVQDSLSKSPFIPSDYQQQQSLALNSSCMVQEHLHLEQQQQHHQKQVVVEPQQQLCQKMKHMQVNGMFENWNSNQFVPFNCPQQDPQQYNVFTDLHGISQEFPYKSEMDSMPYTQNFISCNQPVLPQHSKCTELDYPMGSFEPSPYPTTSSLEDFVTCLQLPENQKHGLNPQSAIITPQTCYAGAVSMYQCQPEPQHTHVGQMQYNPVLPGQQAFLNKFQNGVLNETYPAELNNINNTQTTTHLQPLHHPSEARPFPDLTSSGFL
Protocol: Stable cell lines were established using Jump-In™ T-REx™ HEK293 Retargeting Kit (Life Technologies). Human AHR cDNA was cloned into the pJTI R4 CMV-TO EGFP vector. The EGFP was cloned to the C-terminal of AHR to form AhR-EGFP chimera. The pJTI R4 CMV-TO AhR-EGFP vector was transfected using FuGENE® HD into Jump-In™ T-REx™ HEK293 cells. Transfected cells were selected using 2.5 mg/ml G418 for 10 to 14 days, then expanded, harvested, and suspended in freeze media (FBS with 8% DMSO) at 2×10^7 cells/ml, and aliquots were stored in liquid nitrogen. […] On the assay date, compound was serially diluted (1:2) into 384-well nunc plates with DMSO using acoustic dispensing (ECHO). The dose response was a 20-point curve. Compound was resuspended in 40 μl of DMEM plus 0.1% BSA. The culture media was damped and 25 μl of DMEM plus 0.1% BSA was added, then 25 μl of compound in DMEM plus 0.1% BSA was added into cell plates. Cells were incubated with compounds at 37° C. and 5% CO2 for 45 minutes. The final DMSO concentration was 0.2%. The media was damped after 45 minutes of incubation. The cells were fixed with 40 μl of cold methanol (−20° C.) for 20 minutes. The methanol was damped and 50 μl of DPBS containing 1 μg/ml Hochst was added into the cell plates. The intensity of EGFP was quantitated by using OPERA PHENIX® or Operetta™ high content image system (Perkin Elmer) with 20× Water Objective and five field per well. The ratio of EGFP fluorescent intensity in nuclear over cytosol was analyzed using a 4-parameter nonlinear logistic equation to determine the potency of AHR agonists.

Compound | EC50
Cn1c(=O)c(C(=O)Nc2ncc(C(F)(F)F)cn2)cc2c(NCCO)cccc21 [Example 69, 5-(2-Hydroxyethylamino)-1-methyl-2-oxo-N-[5-(trifluoromethyl)pyrimidin-2-yl]quinoline-3-carboxamide] | 6.66 nM
Cn1c(=O)c(C(=O)Nc2ccc(F)cn2)cc2cc(NCCO)ccc21 [Example 66, N-(5-Fluoro-2-pyridyl)-6-(2-hydroxyethylamino)-1-methyl-2-oxo-quinoline-3-carboxamide] | 53.9 nM
Cn1c(=O)c(C(=O)Nc2ncc(F)s2)cc2c(NCCO)cccc21 [Example 64, N-(5-Fluorothiazol-2-yl)-5-(2-hydroxyethylamino)-1-methyl-2-oxo-quinoline-3-carboxamide] | 52.9 nM
O=C(Nc1ccc(C(F)(F)F)cc1)c1cc2cccc3c2n(c1=O)CC3 [Example 33, 11-Oxo-N-[4-(trifluoromethyl)phenyl]-1-azatricyclo[6.3.1.04,12]dodeca-4(12),5,7,9-tetraene-10-carboxamide] | 1.33 nM
O=C(Nc1ccccc1)c1cc2ccccc2[nH]c1=O [Example 34, 2-Oxo-N-phenyl-1H-quinoline-3-carboxamide] | 9.04 nM
CO[C@H]1CC[C@@H](NC(=O)c2cc3cccc4c3n(c2=O)CC4)C1 (relative stereo) [Example 31, 11-Oxo-N-[rel-(1S,3R)-3-methoxycyclopentyl]-1-azatricyclo[6.3.1.04,12]dodeca-4(12),5,7,9-tetraene-10-carboxamide] | 53.2 nM
Cc1ccnc(NC(=O)c2cc3ccccc3n(C)c2=O)c1 [Example 7, 1-Methyl-N-(4-methyl-2-pyridyl)-2-oxo-quinoline-3-carboxamide] | 6.13 nM
Cn1c(=O)c(C(=O)Nc2ccc(C#N)nc2)cc2ccccc21 [Example 24, N-(6-Cyano-3-pyridyl)-1-methyl-2-oxo-quinoline-3-carboxamide] | 7.36 nM
CN(C)CCNc1cccc2c1cc(C(=O)Nc1ncc(C(F)(F)F)cn1)c(=O)n2C [Example 54, 5-[2-(Dimethylamino)ethylamino]-1-methyl-2-oxo-N-[5-(trifluoromethyl)pyrimidin-2-yl]quinoline-3-carboxamide] | 18.3 nM
Cn1c(=O)c(C(=O)Nc2ccccn2)cc2c(NCCO)cccc21 [Example 65, 5-(2-Hydroxyethylamino)-1-methyl-2-oxo-N-(2-pyridyl)quinoline-3-carboxamide] | 6.69 nM
COc1ccc(NC(=O)c2cc3cccc4c3n(c2=O)CCC4)cc1 [Example 25, N-(4-Methoxyphenyl)-2-oxo-1-azatricyclo[7.3.1.05,13]trideca-3,5,7,9(13)-tetraene-3-carboxamide] | 2.57 nM
Cn1c(=O)c(C(=O)Nc2ccccc2)cc2ccc(OCCO)cc21 [Example 61, 7-(2-Hydroxyethoxy)-1-methyl-2-oxo-N-phenyl-quinoline-3-carboxamide] | 16.1 nM
COc1ccc(NC(=O)c2cc3ccc(Br)cc3n(C)c2=O)cc1 [Example 36, 7-Bromo-N-(4-methoxyphenyl)-1-methyl-2-oxo-quinoline-3-carboxamide] | 0.832 nM
Cn1c(=O)c(C(=O)Nc2ccncc2)cc2ccccc21 [Example 12, 1-Methyl-2-oxo-N-(4-pyridyl)quinoline-3-carboxamide] | 6.89 nM
Cn1c(=O)c(C(=O)Nc2ccc(F)cn2)cc2c(NCCO)cccc21 [Example 67, N-(5-Fluoro-2-pyridyl)-5-(2-hydroxyethylamino)-1-methyl-2-oxo-quinoline-3-carboxamide] | 1.92 nM
CN(C)CCNc1ccc2c(c1)cc(C(=O)Nc1ccc(F)cn1)c(=O)n2C [Example 52, 6-[2-(Dimethylamino)ethylamino]-N-(5-fluoro-2-pyridyl)-1-methyl-2-oxo-quinoline-3-carboxamide] | 20.3 nM
Cn1c(=O)c(C(=O)Nc2ccccc2O)cc2ccccc21 [Example 2, N-(2-Hydroxyphenyl)-1-methyl-2-oxo-quinoline-3-carboxamide] | 2.41 nM
O=C(Nc1ccc(F)cn1)c1cc2cccc3c2n(c1=O)CC3 [Example 37, N-(5-Fluoro-2-pyridyl)-11-oxo-1-azatricyclo[6.3.1.04,12]dodeca-4(12),5,7,9-tetraene-10-carboxamide] | 0.807 nM
Cn1c(=O)c(C(=O)Nc2cccnc2)cc2ccccc21 [Example 13, 1-Methyl-2-oxo-N-(3-pyridyl)quinoline-3-carboxamide] | 3.72 nM
CN(C)CCNc1cccc2c1cc(C(=O)Nc1ccccn1)c(=O)n2C [Example 53, 5-[2-(Dimethylamino)ethylamino]-1-methyl-2-oxo-N-(2-pyridyl)quinoline-3-carboxamide] | 16.2 nM
COc1cccc(NC(=O)c2cc3ccccc3n(C)c2=O)c1 [Example 8, N-(3-Methoxyphenyl)-1-methyl-2-oxo-quinoline-3-carboxamide] | 1.12 nM

Continued, values first:

EC50 | Compound
5.17 nM | COc1ccc(NC(=O)c2cc3ccccc3n(C)c2=O)c(C)c1 [Example 6, N-(4-Methoxy-2-methyl-phenyl)-1-methyl-2-oxo-quinoline-3-carboxamide]
16.4 nM | Cn1c(=O)c(C(=O)NC23CC(C2)C3)cc2ccccc21 [Example 32, N-(3-Bicyclo[1.1.1]pentanyl)-1-methyl-2-oxo-quinoline-3-carboxamide]
26.8 nM | CN(C)CCNc1cccc2cc(C(=O)Nc3ccccc3)c(=O)n(C)c12 [Example 50, 8-[2-(Dimethylamino)ethylamino]-1-methyl-2-oxo-N-phenyl-quinoline-3-carboxamide]
21.3 nM | CN(C)CCNc1cccc2c1cc(C(=O)Nc1ccccc1)c(=O)n2C [Example 48, 5-[2-(Dimethylamino)ethylamino]-1-methyl-2-oxo-N-phenyl-quinoline-3-carboxamide]
79.2 nM | COc1ccc(NC(=O)c2cc3ccc(NCCN(C)C)cc3n(C)c2=O)cc1 [Example 56, 7-[2-(Dimethylamino)ethylamino]-N-(4-methoxyphenyl)-1-methyl-2-oxo-quinoline-3-carboxamide]
3.5 nM | Cc1ccccc1NC(=O)c1cc2ccccc2n(C)c1=O [Example 11, 1-Methyl-N-(o-tolyl)-2-oxo-quinoline-3-carboxamide]
2.37 nM | Cc1cnc(NC(=O)c2cc3ccccc3n(C)c2=O)nc1 [Example 17, 1-Methyl-N-(5-methylpyrimidin-2-yl)-2-oxo-quinoline-3-carboxamide]
0.993 nM | Cn1c(=O)c(C(=O)Nc2ncc(F)cn2)cc2ccccc21 [Example 14, N-(5-Fluoropyrimidin-2-yl)-1-methyl-2-oxo-quinoline-3-carboxamide]
1.4 nM | Cn1c(=O)c(C(=O)Nc2ccccc2)cc2c(OCCO)cccc21 [Example 60, 5-(2-Hydroxyethoxy)-1-methyl-2-oxo-N-phenyl-quinoline-3-carboxamide]
6 nM | Cn1c(=O)c(C(=O)Nc2ccccc2)cc2cc(NCCO)ccc21 [Example 62, 6-(2-Hydroxyethylamino)-1-methyl-2-oxo-N-phenyl-quinoline-3-carboxamide]
19.2 nM | Cn1c(=O)c(C(=O)Nc2ccccn2)cc2cc(OCCO)ccc21 [Example 59, 6-(2-Hydroxyethoxy)-1-methyl-2-oxo-N-(2-pyridyl)quinoline-3-carboxamide]
0.831 nM | Cn1c(=O)c(C(=O)Nc2ccccc2)cc2ccc(Br)cc21 [Example 40, 7-Bromo-1-methyl-2-oxo-N-phenyl-quinoline-3-carboxamide]
1.09 nM | COc1cnc(NC(=O)c2cc3ccccc3n(C)c2=O)cn1 [Example 16, N-(5-Methoxypyrazin-2-yl)-1-methyl-2-oxo-quinoline-3-carboxamide]
